Laboratory results reported in ChEMBL document CHEMBL1144271, “Carbonic anhydrase inhibitors: synthesis and inhibition of cytosolic/tumor-associated carbonic anhydrase isozymes I, II, and IX with bis-sulfamates” (Bioorg Med Chem Lett, 2005).

Columns and labels:
[1] = molecular target: Carbonic anhydrase 9 (Homo sapiens, UniProt Q16790)
[2] = molecular target: Carbonic anhydrase 1 (Homo sapiens, UniProt P00915)
Sequence of Carbonic anhydrase 1 (P00915 whole entry): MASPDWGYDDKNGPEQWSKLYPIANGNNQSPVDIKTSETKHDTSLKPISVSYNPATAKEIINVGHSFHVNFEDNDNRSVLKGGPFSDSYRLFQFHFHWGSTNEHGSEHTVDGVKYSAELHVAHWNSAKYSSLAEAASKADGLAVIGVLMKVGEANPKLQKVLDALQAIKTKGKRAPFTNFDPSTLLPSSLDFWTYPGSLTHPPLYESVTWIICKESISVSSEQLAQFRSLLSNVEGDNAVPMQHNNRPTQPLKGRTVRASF

SMILES | Ki [1] | Ki [2]
NS(=O)(=O)OCCCCCCCOS(N)(=O)=O | 10.1 nM | 
C[C@]12CC[C@@H]3c4ccc(OS(N)(=O)=O)cc4CC[C@H]3[C@@H]1CC[C@@H]2OS(N)(=O)=O |  | 6000 nM
NS(=O)(=O)OCc1ccc(COS(N)(=O)=O)cc1 | 61.6 nM | > 20 nM
